Data as given in US11060715B2, “Ex vivo proliferation of epithelial cells” (PROPAGENIX INC., priority 2015, dated 2021).

Columns and labels:
[1] = system: bronchial epithelial cells; test: Effect of calcium content on bronchial epithelial cells in KSFM plus A83-01 and Y-27632 (morphology, TEER); format: cell-based, human
Procedure: Effects of culture media calcium content on cell behavior were assessed for epithelial cells cultured in KSFM plus A83-01 and Y-27632. Human bronchial epithelial cells were grown KSFM (with 90 μM CaCl2) plus A83-01 and Y-27632. These cells dispersed throughout the culture vessel (FIG. 28, left panel), and few cells formed intercellular connections, even when they were in close proximity to each other. […] Cells in the center of the patches tended to pile up, and boundaries between individual cells generally were not discernable. In certain instances, abnormal elongations formed between clusters.
In a further investigation, effects of culture media calcium content on intercellular junctions was assessed for bronchial epithelial cells cultured in KSFM plus A83-01 and Y-27632. Intercellular junctions were assessed according to paracellular flow of ions as measured by trans-epithelium electric resistance (TEER). […] Bronchial epithelial cells were plated on porous membrane support ([…], Corning, 354474) and maintained for 7 days when the membrane was covered with culture medium (submerged phase, grayed box in FIG. 29, top panel). On day 8, the medium was removed from the apical side of the membrane, and the cells were exposed to air to induce further differentiation. […]

[2] = system: human foreskin keratinocytes (HFK); test: Differentiation of keratinocytes at high CaCl2 in KSFM+A+Y (ZO-1 staining, TEER, H&E); format: cell-based
Procedure: Specifically, late passage human foreskin keratinocytes (HFK) cultured in KSFM supplemented with 1 μM A83-01 and 5 μM Y-27632 (KSFM+A+Y) at low CaCl2 (90 μM) were allowed to reach confluence. The cells remained in the KSFM+A+Y conditions and the CaCl2 concentration was raised to 1.5 mM to induce differentiation.
Keratinocytes established increasing transmembrane electric resistance (TEER) over time in air-liquid-interface differentiation, in the presence of high concentration (1.5 mM) of CaCl2 in KSFM plus A 83-01 and Y-27632. Specifically, human foreskin keratinocytes (HFK) previously cultured in KSFM supplemented with 1 μM A83-01 and 5 μM Y-27632 (KSFM+A+Y) at low CaCl2 (90 μM) were plated on a porous membrane support ([…], Corning, 354474) and maintained for 14 days. The cells were covered by culture medium (KSFM+A+Y and 1.5 mM of CaCl2) for the first day (submerged phase, grayed box in FIG. 34) and exposed to air for the remaining days.
Keratinocytes formed an epidermal-like structure over time in air-liquid-interface differentiation, in the presence of high concentration (1.5 mM) of CaCl2 in KSFM plus A 83-01 and Y-27632. Specifically, human foreskin keratinocytes (HFK) previously cultured in KSFM supplemented with 1 μM A83-01 and 5 μM Y-27632 (KSFM+A+Y) at low CaCl2 (90 μM) were plated on a porous membrane support ([…], Corning, 354474) and maintained for 14 days. […]

[3] = system: late passage prostate epithelial cells; test: Proliferation of late passage prostate epithelial cells in KSFM plus compounds, 5 days; format: cell-based, human
Procedure: Stocks of certain chemicals used in the study were prepared by dissolving in DMSO to 10 mM. The chemical stocks were added to culture media to desired final concentrations, as described in Examples 2 to 5 and shown in FIGS. 1 to 17, from the time when cell culture was initiated.
In a control experiment with no added compound, there was minimum increase of cell numbers after 5 days.
In control experiment with no inhibitor added to KSFM, there was minimum increase of cell numbers after 5 days. […] As described above, these include Rho kinase inhibitors (i.e., Rho-associated protein kinase inhibitors) such as Y-27632, SR 3677, GSK 429286 and Thiazovivin; PAK1 inhibitor IPA-3; and myosin II inhibitor (i.e., non-muscle myosin II (NM II) inhibitor) Blebbistatin.

[4] = system: bronchial epithelial cells; test: Growth (population doublings) of bronchial epithelial cells in culture; format: cell-based, human
Procedure: (§1) Epithelial cells (prostate epithelial cells and bronchial epithelial cells) were plated at 3,000-10,000 viable cells/cm^2 in tissue culture vessels, using culture medium as indicated in Examples 2 to 5 and FIGS. 1 to 17, and incubated at 37° C. with 5% CO2. The medium was changed every 2 or 3 days. Cells were sub-cultured using standard trypsinization method when they were about 70-90% confluent. Total cell number was determined using the Countess II Automated Cell Counter (Life Technologies, AMQAX1000) following manufacturer's instructions.
(§2) A formula used for the calculation of population doublings (PD) is presented in Equation A: n=3.32*(log Y−log I)+X Equation A where n=the final PD number at end of a given subculture, Y=the cell yield at the time of harvesting, I=the cell number used as inoculum to begin that subculture, and X=the doubling level of the inoculum used to initiate the subculture being quantitated.
(§3) Prostate and bronchial epithelial cells were grown in KSFM in the presence of Rho kinase inhibitor (i.e., Rho-associated protein kinase inhibitor) Y-27632.
Similar to the experiment above, bronchial epithelial cells were grown in KSFM in the presence of media alone, ALK5 inhibitor A83-01, Rho kinase inhibitor (i.e., Rho-associated protein kinase inhibitor) Y-27632, or both (with or without collagen).

[5] = system: bronchial epithelial cells; test: Plating efficiency of bronchial epithelial cells in KSFM; format: cell-based, human; conditions: regular tissue culture surface
Procedure: as §1
(§4) In this example, epithelial cell plating efficiency, i.e., number of cells that efficiently attach to the cell culture surfaces, continue to divide and grow into colonies, was examined under various conditions.
(§5) However, those few cells that did attach continued to proliferate.
Many bronchial epithelial cells attached to regular tissue culture surface in the presence of both A83-01 and Y-27632 at day 2 after plating.

[6] = system: prostate epithelial cells; test: Growth (population doublings) of prostate epithelial cells in culture; format: cell-based, human
Procedure: as §1, §2, §3
To examine the effects of additional in vitro and/or ex vivo growth conditions, prostate epithelial cells were grown in KSFM or PrEGM in the presence of media alone, ALK5 inhibitor A83-01, Rho kinase inhibitor (i.e., Rho-associated protein kinase inhibitor) Y-27632, or both (with or without collagen).

[7] = system: human telomerase reverse transcriptase (hTERT) gene; test: hTERT expression by quantitative real-time PCR in bronchial epithelial cells; format: cell-based; conditions: KSFM
Procedure: (§6) Total RNA was prepared using TRIzol® Plus RNA Purification Kit (Life Technologies, 12183-555) and PureLink® RNA Mini Kit (Life Technologies, 12183018A), following the manufacturer's instructions. One hundred nanogram total RNA was used for the determination of human telomerase reverse transcriptase (hTERT) expression using the TaqMan® RNA-to-CT™ 1-Step Kit (Life Technologies, 4392938), following the protocol provided by the supplier. hTERT primers and Taqman® probe used were as follows: forward primer, 5′-[…]-3′ (SEQ ID NO:7), reverse primer, 5′-[…]-3′ (SEQ ID NO:8) and Taqman® probe, 5′-[…]-3′ (SEQ ID NO:9).
(§7) In this example, hTERT expression in epithelial cells was assessed in the presence of an ALK5 inhibitor, a Rho kinase inhibitor (i.e., a Rho-associated protein kinase inhibitor), or both. Expression of hTERT gene was examined by quantitative real-time PCR in bronchial epithelial cells and prostate epithelial cells. The cells were treated with an ALK5 inhibitor, A83-01, or a Rho kinase inhibitor (i.e., a Rho-associated protein kinase inhibitor), Y-27632, or both inhibitors, at different passages in KSFM.

[8] = system: keratinocytes; test: Expansion of keratinocytes in KSFM supplemented with combinations of components; format: cell-based, human; conditions: increasing doses, KSFM with EGF, isoproterenol, A 83-01 and rHA
Procedure: In another experiment, keratinocytes were cultured in KSFM supplemented with various combinations of components.
In another experiment, keratinocytes were cultured in the presence of increasing doses of ROCK inhibitor (Y-27632) or Myosin II ATPase inhibitor (blebbistatin), in KSFM supplemented with EGF (0.5 ng/mL), isoproterenol (3 μM), A 83-01 (1 μM), and recombinant human serum albumin (expressed in rice; 100 μg/mL).
In another experiment, keratinocytes were cultured in the presence of increasing doses (between 10 nM to 2 μM) of retinoic acid receptors (RAR) antagonist BMS-453 or retinoic acid receptors (RAR) antagonist BMS-195614, in KSFM supplemented with EGF (0.5 ng/mL), isoproterenol (3 μM), A 83-01 (1 μM), and recombinant human serum albumin (expressed in rice; 100 μg/mL).

[9] = system: human telomerase reverse transcriptase (hTERT) gene; test: hTERT expression by quantitative real-time PCR in prostate epithelial cells; format: cell-based; conditions: KSFM
Procedure: as §6, §7
As shown in FIG. 6A and FIG. 6B, prostate epithelial cells at early passage (p2) expressed low level of hTERT, which quickly diminished at passage 3 and became non-detectible by passage 5.

[10] = system: prostate epithelial cells; test: Plating efficiency of prostate epithelial cells in KSFM; format: cell-based, human; conditions: regular tissue culture surface
Procedure: as §1, §4, §5
Many prostate epithelial cells attached to regular tissue culture surface in the presence of both A83-01 and Y-27632 at day 2 after plating.

[11] = system: human foreskin keratinocytes (HFK) and human bronchial epithelial cells (HBEC); test: Cell growth with increasing isoproterenol in KSFM plus A83-01 and Y-27632, six days; format: cell-based; conditions: in KSFM plus 1 μM A83-01 and 5 μM Y-27632, six days
Procedure: In a further investigation, epithelial cell growth was assessed in the presence of a beta-adrenergic agonist (i.e., a beta-adrenergic receptor agonist). Human foreskin keratinocytes (HFK) and human bronchial epithelial cells (HBEC) were cultured in KSFM plus 1 μM A83-01 and 5 μM Y-27632, supplemented with increasing concentrations of isoproterenol (a beta-adrenergic receptor agonist that increases cytosolic cAMP levels). Cell numbers were counted after six days to calculate cell growth relative to control.

[12] = KSFM, compound used alone, late passage

## [Ca+2].[Cl-].[Cl-] [CaCl2]
[1]; 1 mM CaCl2 in KSFM plus A83-01 and Y-27632
  cell behavior (morphology): aggregate into tight clusters
[1]; high concentration (1 mM) in KSFM plus A 83-01 and Y-27632
  trans-epithelium electric resistance (TEER): increasing TEER
[2]; 1.5 mM CaCl2 in KSFM+A+Y, air-liquid-interface, day 14
  epidermal-like structure formation (H&E): differentiated into multi-layer structures
[2]; CaCl2 raised to 1.5 mM in KSFM+A+Y
  tight junction formation (ZO-1 staining): Tight junction formation was observed

## C[C@@H](N)[C@H]1CC[C@H](C(=O)Nc2ccncc2)CC1.Cl.Cl [Y-27632, (R)-(+)-trans-4-(1-Aminoethyl)-N-(4-Pyridyl)cyclohexanecarboxamide dihydrochloride]
[3]; KSFM plus compound alone (FIG. 17)
  cell proliferation after 5 days: slight increase of cell proliferation
[3]; KSFM plus individual compound alone, 5 μM, 1 μM and 0.2 μM (FIG. 16)
  total cell number after 5 days: slight increase of total cell numbers
[3]; used together with A83-01 in KSFM, 5 μM, 1 μM and 0.2 μM (FIG. 17)
  cell proliferation after 5 days: synergistically increased
[4]; [12]
  proliferation: did not promote the proliferation
[4]; added to KSFM
  total population doublings: slightly increased the total population doublings
[5]
  plating efficiency in the presence of A83-01: ameliorated the low plating efficiency
[6]; KSFM
  population doubling (PD) reached before cells entered senescence: > 20
[6]; [12]
  proliferation: did not promote the proliferation
[6]; added to KSFM
  total population doublings: slightly increased the total population doublings
[7]; early passage (p3)
  hTERT expression: slightly induced
[7]; late passage (p6)
  hTERT expression: non-detectible
[8]
  cell growth rate: No significant increase of cell growth rate
[9]; early passage (p2)
  hTERT expression: induced
[9]; late passage (p5)
  hTERT expression: non-detectible
[10]
  plating efficiency in the presence of A83-01: ameliorated the low plating efficiency

## CC(C)NCC(O)c1ccc(O)c(O)c1 (centres unmarked) [isoproterenol]
[11]
  cell growth relative to control: further increased epithelial cells growth
